One compound from US12343319B2, “Compositions and methods for treatment of diseases and disorders” (Atai Therapeutics Inc., priority 2023, dated 2025) can be followed below.

Each structure is given as a SMILES string. Entries after “also recorded” stand apart in the source; their conditions may differ.

Data set [1] concerns Male WKY rats. Put plainly: Low-dose sleep, locomotor, body temperature and qEEG study in WKY rats. The class given is in vivo, rat. The following applies: 1, 3 and 10 mg/kg IP. The procedure: The aim of the current study was to identify a minimal effective dose of compound by testing a series of lower doses (1, 3 and 10 mg/kg). The study was carried out similarly to Examples 7 and 9 with differences noted below. Male WKY rats (n=8, 255-296 g at the start of dosing) were housed in groups of 2-3 animals per cage with standard housing conditions.

In data set [2] the test system is Male WKY rats. Put plainly: Confirmatory 30 mg/kg sleep, locomotor, body temperature and qEEG study in WKY rats. The format is in vivo, rat. The following applies: 30 mg/kg IP. The procedure:
The aim of the current study was to confirm the effects of compound 2-2 (30 mg/kg) on sleep-wake behavior and EEG brain oscillatory power in an independent cohort of male Wistar Kyoto rats. The study was carried out similarly to Examples 7 and 9 with differences noted below. Male WKY rats (n=8, 323-352 g at the start of dosing) were housed in groups of 2-3 animals per cage with standard housing conditions.

Another data set concerns Male Sprague-Dawley rats. As to the kind of experiment: 5-HT2A/2C/1A-mediated behaviors, locomotor activity and body temperature in rats. The class given is in vivo, rat. The procedure:
Forty (40) male Sprague-Dawley rats were used as test subjects in this study. Animals were dosed with vehicle (IP), one of 3 doses of compound 2-2 (3 mg/kg, 10 mg/kg, 30 mg/kg IP) or psilocybin (1 mg/kg SC) and, following the appropriate pre-treatment time, were placed in locomotor activity boxes and continuously monitored for a 1 hr period with data collected into 10-minute time bins. Animals were visually assed for overt behavioral signs, including biomarkers for 5-HT2A receptor target engagement (i.e. wet dog shakes, back muscle contractions and stereotypic behaviors), 5-HT2C receptor activation (yawning, penile grooming), and 5-HT1A behaviors (forepaw treading, hindlimb abduction). Additional behavioral and somatic signs characteristic of 5-HT syndrome (i.e. tremor, salivation, flat body posture) also were measured. Core body temperature change was determined at 0 hr (pre-dose), 1 hr, and 2 hr. Simultaneously, the spontaneous locomotor activity of the rats was measured using automated Med Associates activity test chambers. Activity data collected included total distance travelled, rearing counts, and ambulatory episodes. LMA was measured for a total of 2 hours (i.e. the first hour to include visual assessments of behavioral signs, and the second hour the animals will not be assessed for behavioral signs) with data collected into 10 minute time bins. The tracking arena measured 17″ W×17″ L×12″ H, sensor bars were secured 1″ above the floor to track distance travelled, and a second set of sensor bars were placed ˜5″ above the floor to measure vertical movement and rearing activity. The parameters set on the tracking software were as follows: resolution −50 ms, box size −4 beams, resting delay −500 ms, and ambulatory trigger −3.
Table 14 outlines receptor activity and related behavioral and/or physiological measures.

In data set [3] the test system is primary cortical rat neurons. Put plainly: Synaptogenesis assay in primary cortical rat neurons. The class given is cell-based. The following applies: 1 μM (highest concentration), DIV1-DIV10. The procedure:
Pregnant rats for this study were purchased from a commercial breeder. Primary cortical neurons from E17/E18 rat pups were isolated and seeded in 96-well plates. Cells were treated with compound 2-2, FGF (Reference item) or vehicle. After incubation with the respective treatment, cortical neurons were stained for synapsin and tubulin using immunofluorescence.
Stained cells were imaged with the Cytation 5 Multimode reader. From each well, 9 images were taken at 10× magnification. Digital images from cortical neurons were analyzed for the following parameter using a software-supported automatic quantification method: Number of synapsin positive objects. Analysis was performed using Gen5 software. The experiment was run in n=10 technical replicates per condition. Vehicle control and FGF were included on each plate totaling n=20 technical replicates.
Primary cortical neurons were prepared from timed pregnant Spargue Dawley rats at E17/E18. Animals were sacrificed (see section 3.3.1) and embryos were dissected in Calcium and Magnesium free Hanks Balanced Salt Solution (CMF-HBSS) containing 15 mM HEPES and 10 mM NaHCO3, pH 7.2. Embryos were decapitated, skin and skull gently removed and hemispheres were separated. After removing meninges and brain stem, the cortices were isolated, chopped with a sterile razor blade in Chop solution (Hibernate-E without Calcium containing 2% B-27) and digested in 2 mg/mL papain (Worthington) dissolved in Hibernate-E without Calcium for 30 minutes (±5 min) at 30° C. The cortices of the embryos from the two rats were pooled and processed together.
Cortices were triturated for 10-15 times with a fire-polished silanized Pasteur pipette in Hibernate-E without Calcium containing 2% B-27, 0.01% DNaseI, 1 mg/mL BSA, and 1 mg/mL Ovomucoid Inhibitor. Undispersed pieces were allowed to settle by gravity for 3 min and the supernatant was centrifuged for 3 min at 228 g. […]
Cells were counted in a hemacytometer and seeded in nutrition medium on poly-D-lysine pre-coated 96-well plates at a density of 1.5×10^4 cells/well. […]

[4] abbreviates: 5-HT1A agonism, 3, 10, 30 mg/kg IP.
[5] abbreviates: 5-HT2C agonism, 3, 10, 30 mg/kg IP.
[6] abbreviates: excess 5-HT agonism (5-HT syndrome), 3, 10, 30 mg/kg IP.

Regarding `COc1ccc(OC)c(CCNCc2cc(C)cc(F)c2)c1` [Compound 2-2, 2-(2,5-dimethoxyphenyl)-N-(3-fluoro-5-methylbenzyl)ethan-1-amine], in the data set on Male WKY rats [1], the body temperature entry is recorded as “did not affect” and the locomotion entry is recorded as “did not affect”. Also, in the data set with Male WKY rats [2], the NREM sleep latency entry is recorded as “no significant effect”, the body temperature result is “transiently reduced” and the locomotion entry was “did not affect”. Also, in the data set with Male Sprague-Dawley rats (30 mg/kg IP), the “distance travelled during the first 20 minutes of the 2 hour test” value is “decreased”, the total ambulatory episodes result is reported as “decreased” and the total rearing counts result is given as “decreased”. In the data set with Male Sprague-Dawley rats (3, 10, 30 mg/kg IP, 2 hour test), the total distance travelled entry is given as “did not affect”. In addition, in the data set on Male Sprague-Dawley rats (5-HT1A agonism / excess 5-HT agonism, 30 mg/kg IP (highest dose tested), 30 mg/kg), the Flat body posture result is “induced flat body posture; also recorded: Significant Increase”. Moreover, in the data set with Male Sprague-Dawley rats (setting [4]), the “Forepaw treading (FPT)” value is on record as “No effect” and the “Hindlimb abduction (HLA)” value is on record as “No effect”. In the data set with Male Sprague-Dawley rats (setting [5]), the “Penile grooming (PG)” value is “No effect” and the Yawning entry is on record as “No effect”. For the same compound, in the data set with Male Sprague-Dawley rats (setting [6]), the Salivation entry was “No effect” and the Tremor entry is given as “No effect”. In addition, the Locomotor activity result in the data set on Male Sprague-Dawley rats (mixed/non-selective, 30 mg/kg IP) is reported as “Significant decrease”. Moreover, in data set [3], the “synaptogenesis compared to VC (synapsin positive objects normalized to tubulin III area)” value is given as “did not have any significant effect”.
